Test results from ChEMBL document CHEMBL5143590, “Dihydropyrimidinone imidazoles as unique structural antibacterial agents for drug-resistant gram-negative pathogens” (Eur J Med Chem, 2022).
Converted amounts (≈) assume the structure as drawn.

Assays:
Assay type in all cases: functional
Pseudomonas aeruginosa [1] = test: Antibacterial activity against Pseudomonas aeruginosa assessed as inhibition of bacterial growth by two fold serial dilution method
Staphylococcus aureus [2] = test: Antibacterial activity against methicillin-resistant Staphylococcus aureus N315 assessed as inhibition of bacterial growth by two fold serial dilution method
Staphylococcus aureus [3] = test: Antibacterial activity against Staphylococcus aureus 25923 assessed as inhibition of bacterial growth by two fold serial dilution method
Acinetobacter baumannii = test: Antibacterial activity against Acinetobacter baumannii assessed as inhibition of bacterial growth by two fold serial dilution method
Staphylococcus aureus [4] = test: Antibacterial activity against Staphylococcus aureus 29213 assessed as inhibition of bacterial growth by two fold serial dilution method
Pseudomonas aeruginosa [5] = test: Antibacterial activity against Pseudomonas aeruginosa 27853 assessed as inhibition of bacterial growth by two fold serial dilution method
Staphylococcus aureus [6] = test: Antibacterial activity against Staphylococcus aureus assessed as inhibition of bacterial growth by two fold serial dilution method
Escherichia coli [7] = test: Antibacterial activity against Escherichia coli 25922 assessed as inhibition of bacterial growth by two fold serial dilution method
Escherichia coli [8] = test: Antibacterial activity against Escherichia coli assessed as inhibition of bacterial growth by two fold serial dilution method
Klebsiella pneumoniae = test: Antibacterial activity against Klebsiella pneumoniae assessed as inhibition of bacterial growth by two fold serial dilution method
Enterococcus faecalis = test: Antibacterial activity against Enterococcus faecalis assessed as inhibition of bacterial growth by two fold serial dilution method

SMILES	MIC (Pseudomonas aeruginosa [1]) [µg/mL]	MIC (Staphylococcus aureus [2]) [µg/mL]	MIC (Staphylococcus aureus [3]) [µg/mL]	MIC (Acinetobacter baumannii) [µg/mL]	MIC (Staphylococcus aureus [4]) [µg/mL]	MIC (Pseudomonas aeruginosa [5]) [µg/mL]	MIC (Staphylococcus aureus [6]) [µg/mL]	MIC (Escherichia coli [7]) [µg/mL]	MIC (Escherichia coli [8]) [µg/mL]	MIC (Klebsiella pneumoniae) [µg/mL]	MIC (Enterococcus faecalis) [µg/mL]
CCCCc1nc(Cl)c(C2NC(=O)NC(C)=C2C(=O)OCC)n1S(=O)(=O)c1cccc(Cl)c1 (stereo not given)	128 (≈ 248 µM)	16 (≈ 31 µM)	32 (≈ 62.1 µM)	128 (≈ 248 µM)	64 (≈ 124 µM)	64 (≈ 124 µM)	64 (≈ 124 µM)	32 (≈ 62.1 µM)	64 (≈ 124 µM)	64 (≈ 124 µM)	32 (≈ 62.1 µM)
CCCCc1nc(Cl)c(C2NC(=O)NC(C)=C2C(=O)OCC)n1C (stereo not given)	64 (≈ 180 µM)	64 (≈ 180 µM)	256 (≈ 721 µM)	64 (≈ 180 µM)	64 (≈ 180 µM)	256 (≈ 721 µM)	32 (≈ 90.2 µM)	64 (≈ 180 µM)	128 (≈ 361 µM)	128 (≈ 361 µM)	128 (≈ 361 µM)
CCCCc1nc(Cl)c(C2NC(=O)NC(CN(c3ccc(OC)nn3)S(=O)(=O)c3ccc(N)cc3)=C2C(=O)OCC)[nH]1 (stereo not given)	128 (≈ 207 µM)	32 (≈ 51.7 µM)	64 (≈ 103 µM)	64 (≈ 103 µM)	64 (≈ 103 µM)	16 (≈ 25.8 µM)	32 (≈ 51.7 µM)	64 (≈ 103 µM)	128 (≈ 207 µM)	16 (≈ 25.8 µM)	64 (≈ 103 µM)
CCCCc1nc(Cl)c(C2NC(=O)NC(CN(c3nnc(C)s3)S(=O)(=O)c3ccc(N)cc3)=C2C(=O)OCC)[nH]1 (stereo not given)	64 (≈ 105 µM)	64 (≈ 105 µM)	256 (≈ 420 µM)	128 (≈ 210 µM)	128 (≈ 210 µM)	64 (≈ 105 µM)	128 (≈ 210 µM)	128 (≈ 210 µM)	128 (≈ 210 µM)	64 (≈ 105 µM)	8 (≈ 13.1 µM)
CCCCc1nc(Cl)c(C2NC(=O)NC(C)=C2C(=O)OCC)n1CC(=O)N1CCOCC1 (stereo not given)	64 (≈ 137 µM)	64 (≈ 137 µM)	128 (≈ 274 µM)	128 (≈ 274 µM)	64 (≈ 137 µM)	256 (≈ 547 µM)	64 (≈ 137 µM)	256 (≈ 547 µM)	128 (≈ 274 µM)	32 (≈ 68.4 µM)	128 (≈ 274 µM)
CCCCc1nc(Cl)c(C2NC(=O)NC(C)=C2C(=O)OCC)n1Cc1ccc(F)cc1 (stereo not given)	32 (≈ 71.3 µM)	16 (≈ 35.6 µM)	32 (≈ 71.3 µM)	32 (≈ 71.3 µM)	32 (≈ 71.3 µM)	32 (≈ 71.3 µM)	16 (≈ 35.6 µM)	16 (≈ 35.6 µM)	16 (≈ 35.6 µM)	16 (≈ 35.6 µM)	32 (≈ 71.3 µM)
CCCCc1nc(Cl)c(C2NC(=O)NC(C)=C2C(=O)OCC)n1CC (stereo not given)	64 (≈ 174 µM)	64 (≈ 174 µM)	128 (≈ 347 µM)	128 (≈ 347 µM)	256 (≈ 694 µM)	128 (≈ 347 µM)	64 (≈ 174 µM)	32 (≈ 86.8 µM)	64 (≈ 174 µM)	64 (≈ 174 µM)	64 (≈ 174 µM)
CCCCc1nc(Cl)c(C2NC(=O)NC(C)=C2C(=O)OCC)n1Cc1ccccc1Cl (stereo not given)	64 (≈ 138 µM)	16 (≈ 34.4 µM)	16 (≈ 34.4 µM)	32 (≈ 68.8 µM)	128 (≈ 275 µM)	32 (≈ 68.8 µM)	32 (≈ 68.8 µM)	32 (≈ 68.8 µM)	32 (≈ 68.8 µM)	128 (≈ 275 µM)	32 (≈ 68.8 µM)
CCCCc1nc(Cl)c(C2NC(=O)NC(CN(c3nccs3)S(=O)(=O)c3ccc(N)cc3)=C2C(=O)OCC)[nH]1 (stereo not given)	256 (≈ 431 µM)	128 (≈ 215 µM)	256 (≈ 431 µM)	256 (≈ 431 µM)	256 (≈ 431 µM)	256 (≈ 431 µM)	256 (≈ 431 µM)	256 (≈ 431 µM)	256 (≈ 431 µM)	256 (≈ 431 µM)	256 (≈ 431 µM)
CCCCc1nc(Cl)c(C2NC(=O)NC(CNS(=O)(=O)c3ccc(N)cc3)=C2C(=O)OCC)[nH]1 (stereo not given)	256 (≈ 501 µM)	256 (≈ 501 µM)	256 (≈ 501 µM)	128 (≈ 250 µM)	256 (≈ 501 µM)	256 (≈ 501 µM)	128 (≈ 250 µM)	256 (≈ 501 µM)	256 (≈ 501 µM)	256 (≈ 501 µM)	256 (≈ 501 µM)
